Measured values published in ChEMBL document CHEMBL1151725, “A cell wall-active lipopeptide from the fungus Pochonia bulbillosa” (2008).

Test system: Neurospora crassa
Experiment: Antifungal activity against Neurospora crassa os-1 mutant assessed as zone of protoplast production at 600 ng/disk after 36 to 48 hrs by microscopic examination
Format: functional

With CCCCCCCCCC(O)CCCC(=O)N[C@H](C(=O)N[C@H](C)C(=O)N[C@@H](C)C(=O)N[C@@H](C)C(=O)N[C@H](Cc1ccc(O)cc1)C(=O)N[C@H](C(=O)O)C(C)C)[C@@H](C)O (stereo partly specified) the Activity was 20 mm.
